Assay: In vivo sublimation (disappearance) of pellets from subcutaneous implant sites
Design: species or system Sprague-Dawley male rats
Details: subcutaneous implant in neck scruff of rats, explanted pellet mass (FIG. 11)
Protocol: The in-vivo disappearance rates of hexamethylethane and adamantane pellets from subcutaneous implant sites in rats were assessed over a 16-week period. Forty six Sprague-Dawley male rats of similar age and weight were assigned into five treatment groups: hexamethylethane pellet implantation (Group H), adamantane pellet implantation (Group A), PLGA (Boehringer Ingelheim Resomer RG 504H) pellet implantation (Group P), a sham group for which surgery was performed without pellet implantation, and a control (no surgery) group. Pellets were individually weighed, and implanted into the neck scruff of rats. Explantation and reweighing of adamantane pellets was performed at 4 and 8 days, and 2, 4, 8, and 10 weeks; hexamethylethane pellets were explanted and weighed at 4 and 24 hours, and 4, 8, and 14 days.

| SMILES | in-vivo sublimation / disappearance period of pellets |
| --- | --- |
| C1C2CC3CC1CC(C2)C3 [adamantane] | over a period of at least two months |
| CC(C)(C)C(C)(C)C [hexamethylethane, 2,2,3,3-Tetramethylbutane] | over a period as short as one week |
